Conditions: Liquid, Capillary tube (Ostwald / Ubbelohde) method

O [water]
viscosity [mPa·s]
Conditions | 296.56 K | 337.85 K | 369.15 K | 398.75 K | 436.34 K | 482.43 K | 521.56 K | 580.74 K
10000 kPa | 0.9188 | 0.4362 | 0.296 | 0.2229 | 0.168 | 0.1308 | 0.1089 | 0.0838
30000 kPa | 0.9185 | 0.4437 | 0.3028 | 0.2295 | 0.1743 | 0.1341 | 0.1143 | 0.0953

Reference: the NIST ThermoML archive (doi:10.1021/je060124c)
